Results on two compounds are retold here after PMC5947712, “High‐Throughput Kinetic Analysis for Target‐Directed Covalent Ligand Discovery” (Angewandte Chemie (International Ed. in English), 2018).

This assay deals with T1, Cdk2:cyclin A2 (Homo sapiens, UniProt P24941).
T1 construct: GST (N, cleaved yes); made in house; host or cells: E. coli Tuner(DE3)
The experiment in a line: In vitro kinase activity after 24 h incubation of active Cdk2:cyclin A2 with acrylamides. Type of assay: biochemical. The note with it: 0.5 mM, n=3, read-out: % inhibition ± SEM Cdk2. On the procedure:
Figure 6 a) Sequence alignment of Cdk family. Cys177 is highlighted in yellow. b) Published selectivity profiles of selected Cdk2 inhibitors.29 c) Active Cdk1/Cdk2:cyclin A2 was incubated with acrylamides 1 and 2 (0.5 mM) for 24 hours and then their in vitro kinase activity was measured (n=3). […]
Tables! 2R6.! Molecular! replacement! was! conducted! on! all! data! sets! using!Phaser[14]/MOLREP[15]!against! apoRCdk2! (PDB:!
4EK3)!and!the! model! was! iteratively! refined! using! Phenix.Refine[16]!with! manual! modelling! and! adjustments! carried! out! in!
COOT[17].! Descriptions! of! the! ligands! and! links! were! generated! with! JLigand[18]!and! refined! with! Refmac[19].! Electron! density! […]
Cdk2! (1! mg)! was! sequentially! incubated! with! aliquots! of! CAK1! (3!×!0.05! mg)! at! r.t.! for! […]
Phosphorylation! of! […] Cdk2! during! gel! electrophoresis! and! the! reaction! was! monitored! by! […]
initiated!by!addition!of!0.5!mM!ATP!and!0.24!mM!substrate!peptide!([…])!and!the!absorbance!at!340!nm!was!moniR […]
plate! reader! […]
was!measured!from!the!gradient!during!the!linear!phase!of!product!accumulation.!! […]
ments,! the! wavelength! was! adjusted! to! 230! nm! and! elipticity! was! measured! at! […]
repeats!of!10!s!integrations!per!temperature.!The!meltRtemperature!(Tm)!was!determined!using!Prism!6.0!by!fitting!a!sigmoidal! […]
The! cell! lysates! were!diluted! to! […] RIPA! lysis! buffer,! as! quantified! by! the! […]

In general, inhibition refers to the percentage by which the read-out fell short of the control. Turning to `C=CC(=O)N1CCN(C(=O)OC(C)(C)C)c2ccccc21` [Acrylamide 1], the inhibition at 500 µM worked out at 83 ± 3%.

`C=CC(=O)N1CCN(C(=O)OC)c2ccccc21` [Acrylamide 2]: the inhibition at 500 µM is 5 ± 6%.
